Key:
[1] = Whole blood stability assay; type: in vitro ADME; settings: prodrug 50 nM, fresh pooled human whole blood, 37 degrees C.; read-out: t1/2 at 37 degrees C. in human whole blood
Method: Naltrexone prodrug stability was assessed using freshly collected whole blood (within 24-hr collection) from pooled human (n=3) donors. The incubation mixtures were prepared by spiking the prodrugs into pre-warmed (37 degrees C.) fresh whole blood to a final concentration of 50 nM. After gentle mixing, aliquots of incubation mixtures were immediately transferred into four different 96-deep well plates. One plate was used for each time point. The plates were incubated at 37 degrees C. at a shaking speed of 100 rpm. At time points 15, 30, 60 and 120 minutes, the reaction was quenched by addition of a mixture of water and acetonitrile containing the internal standard (naltrexone-D3). Time point 0 minutes was prepared separately by spiking the prodrugs into a quenched whole blood to obtain a final concentration of 50 nM. All samples were vortexed at a low speed for 15 min and centrifuged at 3900 rpm for 15 min. Supernatants were transferred into 96-well plates for LC-MS/MS analysis to monitor the depletion of the prodrugs and the formation of naltrexone.
The amount of remaining prodrug and released naltrexone for each sample was quantitated against the calibration curves prepared with the whole blood. The human whole blood was purchased from BioreclamationIVT (Westbury, N.Y., USA). Naltrexone-D3 was purchased from CERILLIANT® (Round Rock, Tex., USA). […] Where multiple runs have been completed, average values are reported.

[2] = Pharmacokinetic evaluation of the release of naltrexone from Compound 2 in rats following a single intramuscular injection; type: in vivo, Sprague-Dawley rats; settings: rat plasma
Method: Five male Sprague-Dawley rats were allowed to acclimate to the test facility for at least 2 days prior to study start. For dose administration of Compound 2, the rats were lightly anesthetized with isofluorane, the hind leg shaved and dosed intramuscularly with the formulation using a 21G needle. […] Serial whole blood samples were collected via sublingual route (˜150 μL) at 1, 8, and 24 hours post dose, and at 2, 4, 7, 10, 14, 17, 21, 24, 28, 35, 42, 49, 56, 63, 71, 78, 85, and 91 days post dose.
Blood samples were placed into K2EDTA blood collection tubes. After collection, blood samples were maintained chilled (on wet ice) and centrifuged (11,500 rpm for 2 minutes at 5 degrees C.) within 30 minutes to obtain plasma. Plasma was transferred into a single vial, 1.5 mL screw cap micro-centrifuge tube with inserts and stored at −80 degrees C. until analysis.
The formulation dosed was a crystalline suspension of Compound 2 (46 milligrams of Compound 2 dosed per animal), wherein the crystalline test article was characterized with a particle size distribution of Dv10=12.9 μm, Dv50=31.5 μm, and Dv90=63.1 μm (as measured via laser diffraction). The formulation was prepared the day before dosing. Details of the formulation dosed are described in Table D below.
Results of the above intramuscular rat study of Compound 2 are shown in Tables E and F. In particular, Table E reports the average blood plasma levels of naltrexone in rat (n=5) over 91 days following intramuscular administration.

O=C(Cc1ccc2cc(CC(=O)Oc3ccc4c5c3O[C@H]3C(=O)CC[C@@]6(O)[C@@H](C4)N(CC4CC4)CC[C@]536)ccc2c1)Oc1ccc2c3c1O[C@H]1C(=O)CC[C@@]4(O)[C@@H](C2)N(CC2CC2)CC[C@]314 [Compound 2, bis((4R,4aS,7aR,12bS)-3-(cyclopropylmethyl)-4a-hydroxy-7-oxo-2,3,4,4a,5,6,7,7a-octahydro-1H-4,12-methanobenzofuro[3,2-e]isoquinolin-9-yl) 2,2′-(naphthalene-2,6-diyl)diacetate]
half-life at 50 nM [1]: 20.9 min | Compound 2 conc. ([2]; single i.m. dose of Compound 2, day 0.042 (1 hr), Rat 1): 0.223 ng/mL | Compound 2 conc. ([2]; single i.m. dose of Compound 2, day 0.042 (1 hr), Rat 2): 0.112 ng/mL | Compound 2 conc. ([2]; single i.m. dose of Compound 2, day 0.042 (1 hr), Rat 3): <0.1 ng/mL | Compound 2 conc. ([2]; single i.m. dose of Compound 2, day 0.042 (1 hr), Rat 4): 0.131 ng/mL | Compound 2 conc. ([2]; single i.m. dose of Compound 2, day 0.042 (1 hr), Rat 5): 0.113 ng/mL | Compound 2 conc. ([2]; single i.m. dose of Compound 2, day 0.33 (8 hr), Rat 1): <0.1 ng/mL | Compound 2 conc. ([2]; single i.m. dose of Compound 2, day 0.33 (8 hr), Rat 2): <0.1 ng/mL | Compound 2 conc. ([2]; single i.m. dose of Compound 2, day 0.33 (8 hr), Rat 3): <0.1 ng/mL | Compound 2 conc. ([2]; single i.m. dose of Compound 2, day 0.33 (8 hr), Rat 4): <0.1 ng/mL | Compound 2 conc. ([2]; single i.m. dose of Compound 2, day 0.33 (8 hr), Rat 5): <0.1 ng/mL | Compound 2 conc. ([2]; single i.m. dose of Compound 2, day 1, Rat 1): <0.1 ng/mL | Compound 2 conc. ([2]; single i.m. dose of Compound 2, day 1, Rat 2): <0.1 ng/mL | Compound 2 conc. ([2]; single i.m. dose of Compound 2, day 1, Rat 3): <0.1 ng/mL | Compound 2 conc. ([2]; single i.m. dose of Compound 2, day 1, Rat 4): <0.1 ng/mL | Compound 2 conc. ([2]; single i.m. dose of Compound 2, day 1, Rat 5): <0.1 ng/mL | Compound 2 conc. ([2]; single i.m. dose of Compound 2, day 2, Rat 1): <0.1 ng/mL | Compound 2 conc. ([2]; single i.m. dose of Compound 2, day 2, Rat 2): <0.1 ng/mL | Compound 2 conc. ([2]; single i.m. dose of Compound 2, day 2, Rat 3): <0.1 ng/mL | Compound 2 conc. ([2]; single i.m. dose of Compound 2, day 2, Rat 4): <0.1 ng/mL | Compound 2 conc. ([2]; single i.m. dose of Compound 2, day 2, Rat 5): <0.1 ng/mL | Compound 2 conc. ([2]; single i.m. dose of Compound 2, day 7, Rat 1): <0.1 ng/mL | Compound 2 conc. ([2]; single i.m. dose of Compound 2, day 7, Rat 2): <0.1 ng/mL | Compound 2 conc. ([2]; single i.m. dose of Compound 2, day 7, Rat 3): 0.175 ng/mL | Compound 2 conc. ([2]; single i.m. dose of Compound 2, day 7, Rat 4): <0.1 ng/mL | Compound 2 conc. ([2]; single i.m. dose of Compound 2, day 7, Rat 5): <0.1 ng/mL | Compound 2 conc. ([2]; single i.m. dose of Compound 2, day 10, Rat 1): 0.111 ng/mL | Compound 2 conc. ([2]; single i.m. dose of Compound 2, day 10, Rat 2): <0.1 ng/mL | Compound 2 conc. ([2]; single i.m. dose of Compound 2, day 10, Rat 3): 0.104 ng/mL | Compound 2 conc. ([2]; single i.m. dose of Compound 2, day 10, Rat 4): 0.119 ng/mL | Compound 2 conc. ([2]; single i.m. dose of Compound 2, day 10, Rat 5): <0.1 ng/mL | Compound 2 conc. ([2]; single i.m. dose of Compound 2, day 14, Rat 1): 0.119 ng/mL | Compound 2 conc. ([2]; single i.m. dose of Compound 2, day 14, Rat 2): 0.135 ng/mL | Compound 2 conc. ([2]; single i.m. dose of Compound 2, day 14, Rat 3): <0.1 ng/mL | Compound 2 conc. ([2]; single i.m. dose of Compound 2, day 14, Rat 4): 0.144 ng/mL | Compound 2 conc. ([2]; single i.m. dose of Compound 2, day 14, Rat 5): 0.136 ng/mL | Compound 2 conc. ([2]; single i.m. dose of Compound 2, day 17, Rat 1): <0.1 ng/mL | Compound 2 conc. ([2]; single i.m. dose of Compound 2, day 17, Rat 2): <0.1 ng/mL | Compound 2 conc. ([2]; single i.m. dose of Compound 2, day 17, Rat 3): <0.1 ng/mL | Compound 2 conc. ([2]; single i.m. dose of Compound 2, day 17, Rat 4): <0.1 ng/mL | Compound 2 conc. ([2]; single i.m. dose of Compound 2, day 17, Rat 5): <0.1 ng/mL | Compound 2 conc. ([2]; single i.m. dose of Compound 2, day 21, Rat 1): <0.1 ng/mL | Compound 2 conc. ([2]; single i.m. dose of Compound 2, day 21, Rat 2): <0.1 ng/mL | Compound 2 conc. ([2]; single i.m. dose of Compound 2, day 21, Rat 3): <0.1 ng/mL | Compound 2 conc. ([2]; single i.m. dose of Compound 2, day 21, Rat 4): <0.1 ng/mL | Compound 2 conc. ([2]; single i.m. dose of Compound 2, day 21, Rat 5): 3.25 ng/mL | Compound 2 conc. ([2]; single i.m. dose of Compound 2, day 24, Rat 1): 0.198 ng/mL | Compound 2 conc. ([2]; single i.m. dose of Compound 2, day 24, Rat 2): 0.177 ng/mL | Compound 2 conc. ([2]; single i.m. dose of Compound 2, day 24, Rat 3): 0.217 ng/mL | Compound 2 conc. ([2]; single i.m. dose of Compound 2, day 24, Rat 4): 0.170 ng/mL | Compound 2 conc. ([2]; single i.m. dose of Compound 2, day 24, Rat 5): 0.280 ng/mL

— US10799496B2, “Naphthylenyl compounds for long-acting injectable compositions and related methods” (priority 2018, dated 2020)
